Each structure is given as a SMILES string.

Aβ40, sequence (P05067 672-711 limits assumed): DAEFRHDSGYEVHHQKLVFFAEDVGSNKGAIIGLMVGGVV

The first assay has as its target Aβ40 (Homo sapiens, UniProt P05067). The experiment in a line: Electrospray MS assay for binding to Aβ40. Further details: key: +++ = Strong (70 and higher % of free peptide); ++ = Moderate (50-70% of free peptide); + = Weak (25-50% of free peptide); 0 = None. The conditions noted are these: 100 μM compound, 20 μM Aβ40, pH 7.4. An excerpt: (§1) The ability of a therapeutic compound of the invention to inhibit an interaction between an amyloidogenic protein and a glycoprotein or proteoglycan constituent of a basement membrane can be assessed by an in vitro binding assay, such as that described in U.S. Pat. No. 5,164,295, the contents of which are hereby incorporated by reference. Alternatively, the ability of a compound to bind to an amyloidogenic protein or to inhibit the binding of a basement membrane constituent (e.g. HSPG) to an amyloidogenic protein (e.g. Aβ) can be measured using a mass spectrometry assay where soluble protein, e.g Aβ, IAPP, β2M is incubated with the compound. A compound which binds to, e.g Aβ, will induce a change in the mass spectrum of the protein. Exemplary protocols for a mass spectrometry assay employing Aβ and IAPP can be found in the Examples, the results of which are provided in Table 5. The protocol can readily be modified to adjust the sensitivity of the data, e.g., by adjusting the amount of protein and/or compound employed. Thus, e.g., binding might be detected for test compounds noted as not having detectable binding employing less sensitive test protocols.
The binding ability between the compounds synthesized in Example 4 and Aβ40 in an aqueous solution is tested. The binding ability is attributed semi-quantitatively from the intensities of peptide-compound complex peaks observed in the Electrospray Mass Spectrum.
In the MS assay for Aβ40, samples are prepared as aqueous solutions adding 20% ethanol if necessary to solubilize in water. The stock solution of the peptide contains 50 μm Aβ40. In a typical experiment, 100 μM of an exemplary compound as prepared in Example 4 and 20 μM of solubilized Aβ40 are used. The ratio of the compound: peptide is 5:1. The pH value of each sample is adjusted to 7.4 (±0.2) by addition of 0.1% aqueous sodium hydroxide. The solutions are then analyzed by electrospray ionization mass spectrometry using a Waters ZQ 4000 mass spectrometer. Samples are introduced by direct infusion at a flow-rate of 25 μL/min within 2 hr. after sample preparation. The source temperature is kept at 70° C. and the cone voltage is 20 V for all the analysis. Data are processed using Masslynx 3.5 software. Aβ 1-40 (M.W.=4329) alone at 20 μM is analyzed at pH 7.32 as a control. Sodium clusters, which are typical of this system at +3 and +4 at m/z […] regions, may be observed. The MS assay gives data on the ability of compounds to bind to soluble Aβ, whereas the ThT, EM and CD assays give data on inhibition of fibrillogenesis.
In Table 7, a blank box means that a value was not determined for that compound in that assay.
`COc1ccc(-n2nnnc2SCc2cccc(C[C@H](N)C(=O)O)c2)cc1` [drawing 487]: the “MS Results (Aβ 1-40 binding)” value is reported as “+ (+ = Weak (25-50% of free peptide))”.
The same measure, in the same setting: the result for `N[C@@H](Cc1cccc(CSc2nnnn2-c2ccccc2)c1)C(=O)O` [drawing 488] reads “+ (+ = Weak (25-50% of free peptide))”; that for `N[C@@H](Cc1cccc(CSc2nc3ccccc3[nH]2)c1)C(=O)O` [drawing 489], “+ (+ = Weak (25-50% of free peptide))”; that for `N[C@@H](Cc1cccc(CSc2nnc(-c3ccccc3)[nH]2)c1)C(=O)O` [drawing 490], “+ (+ = Weak (25-50% of free peptide))”.
The same measure, in the same setting: under `N[C@@H](Cc1cccc(CSc2nc3ccccc3[nH]2)n1)C(=O)O` [drawing 491] stands “+ (+ = Weak (25-50% of free peptide))”; under `N[C@@H](Cc1cccc(CSc2ncnc3[nH]ncc23)n1)C(=O)O` [drawing 492], “+ (+ = Weak (25-50% of free peptide))”; under `N[C@@H](Cc1cccc(CS(=O)(=O)c2nc3ccccc3[nH]2)n1)C(=O)O` [drawing 493], “+ (+ = Weak (25-50% of free peptide))”.
As to `COc1ccc(-n2nnnc2[S+]([O-])Cc2cccc(C[C@H](N)C(=O)O)c2)cc1` (stereo partly shown) [drawing 494], the “MS Results (Aβ 1-40 binding)” value was 0.
Regarding `N[C@@H](Cc1cccc(CSc2nccc(O)n2)c1)C(=O)O` [drawing 495], the “MS Results (Aβ 1-40 binding)” value stood at 0.
On the same count and under the same terms, under `N[C@@H](Cc1cccc(C[S+]([O-])c2nnnn2-c2ccccc2)c1)C(=O)O` (stereo partly shown) [drawing 496] stands “+ (+ = Weak (25-50% of free peptide))”.
The same measure, in the same setting: the result for `N[C@@H](Cc1cccc(CSc2nccc(C(F)(F)F)n2)n1)C(=O)O` [drawing 497] reads “Compound insoluble”; that for `N[C@@H](Cc1cccc(CSc2nc3ccc(Cl)cc3s2)n1)C(=O)O` [drawing 498], “Compound Insoluble”.
Regarding `N[C@@H](Cc1cccc(CS(=O)(=O)c2nc3ccccc3[nH]2)c1)C(=O)O` [drawing 499], the “MS Results (Aβ 1-40 binding)” value is listed as “++ (++ = Moderate (50-70% of free peptide))”.
As for `N[C@@H](Cc1cccc(C[S+]([O-])c2nnnn2-c2ccccc2)n1)C(=O)O` (stereo partly shown) [drawing 500], the “MS Results (Aβ 1-40 binding)” value came out at 0.
The same measure, in the same setting: under `N[C@@H](Cc1cccc(CSc2nnnn2-c2ccc(O)cc2)c1)C(=O)O` [drawing 501] stands “+ (+ = Weak (25-50% of free peptide))”; under `N[C@@H](Cc1cccc(CSc2nnc(-c3ccncc3)o2)c1)C(=O)O` [drawing 502], “+ (+ = Weak (25-50% of free peptide))”.
Regarding `COc1ccc(-n2nnnc2[S+]([O-])Cc2cccc(C[C@H](N)C(=O)O)c2)cc1` (stereo partly shown) [drawing 503], the “MS Results (Aβ 1-40 binding)” value is “+ (+ = Weak (25-50% of free peptide))”.
As to `N[C@@H](Cc1cccc(C[S+]([O-])c2nnc(-c3ccccc3)[nH]2)c1)C(=O)O` (stereo partly shown) [drawing 504], the “MS Results (Aβ 1-40 binding)” value was found to be 0.

The target in another assay is T1, IAPP (Homo sapiens, UniProt P10997).
T1 construct: which is a 37 amino acid peptide, derived from a larger precursor peptide, called pro-IAPP
T1 sequence (P10997 34-70 limits assumed): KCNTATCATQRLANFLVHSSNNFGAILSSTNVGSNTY
The experiment in a line: Electrospray MS assay for binding to IAPP. Further details: key to MS Results (IAPP binding), Water: 0 = None. The conditions noted are these: 100 μM compound, 20 μM IAPP, pH 7.4, 20% ethanol in water.
Text: as §1
The binding ability between the compounds synthesized in Example 4 and IAPP in an aqueous solution is tested. The binding ability is attributed semi-quantitatively from the intensities of peptide-compound complex peaks observed in the Electrospray Mass Spectrum.
In the MS assay for IAPP, samples are prepared as both aqueous solutions and as 20% ethanol in water solutions, including 100 μM of an exemplary compound as prepared in. Example 4 and 20 μM of solubilized IAPP. The stock solution contains 30 μM IAPP and the initial pH is 3.8. Generally, IAPP precipitates out of solution at concentrations higher than 50 μM and pH higher than ˜6 as soon as a test compound is mixed with the peptide. The pH value of each sample, therefore, is adjusted to 7.4 ([…]) by addition of 0.1% aqueous sodium hydroxide. The solutions aer then analyzed by electrospray ionization mass spectrometry using a Waters ZQ 4000 mass spectrometer. Samples are introduced by direct infusion at a flow-rate of 25 μL/min within 2 hr. after sample preparation. The source temperature is kept at 70° C. and the cone voltage is 20 V for all the analysis. Data are processed using Masslynx 3.5 software. IAPP (MW 3903.4) alone at 20 μM is analyzed at pH 7.32 as a control. Sodium clusters, which are typical of this system at +3 and +4 at m/z 1301.9 and 976.7 regions, may be observed. In Table 8, a blank box means that a value was not determined for that compound in that assay.
As for `COc1ccc(-n2nnnc2SCc2cccc(C[C@H](N)C(=O)O)c2)cc1` [drawing 508], the “MS Results (IAPP binding), 20% Ethanol” value is “+++ (+++ = Strong (50 and higher % of free peptide))”.
For `N[C@@H](Cc1cccc(CSc2nnnn2-c2ccccc2)c1)C(=O)O` [drawing 509], the “MS Results (IAPP binding), 20% Ethanol” value is given as “++ (++ = Moderate (30-50% of free peptide))”.
Same read-out and setting: under `N[C@@H](Cc1cccc(CSc2nc3ccccc3[nH]2)c1)C(=O)O` [drawing 510] stands “+ (+ = Weak (15-30% of free peptide))”.
On the same count and under the same terms, under `N[C@@H](Cc1cccc(C[S+]([O-])c2nnnn2-c2ccccc2)c1)C(=O)O` (stereo partly shown) [drawing 518] stands “++ (++ = Moderate (30-50% of free peptide))”; under `N[C@@H](Cc1cccc(C[S+]([O-])c2nnnn2-c2ccccc2)n1)C(=O)O` (stereo partly shown) [drawing 522], “++ (++ = Moderate (30-50% of free peptide))”; under `N[C@@H](Cc1cccc(CSc2nnnn2-c2ccc(O)cc2)c1)C(=O)O` [drawing 523], “+++ (+++ = Strong (50 and higher % of free peptide))”.
Same read-out and setting: under `N[C@@H](Cc1cccc(CSc2nnc(-c3ccncc3)o2)c1)C(=O)O` [drawing 524] stands “+ (+ = Weak (15-30% of free peptide))”; under `CN(C)CCn1nnnc1SCc1cccc(C[C@H](N)C(=O)O)c1` [drawing 525], “+ (+ = Weak (15-30% of free peptide))”.

Still in this assay, the particulars now being: 100 μM compound, 20 μM IAPP, pH 7.4, aqueous solution.
In the case of `N[C@@H](Cc1cccc(CSc2ncc[nH]2)c1)C(=O)O`, the “MS Results (IAPP binding), Water” value turned out to be 0.
In the case of `N[C@@H](Cc1cccc(CSc2nnnn2-c2ccccc2)c1)C(=O)O` [drawing 509], the “MS Results (IAPP binding), Water” value is “+ (+ = Weak (15-30% of free peptide))”.
Still for that read-out and setting: the result for `N[C@@H](Cc1cccc(CSc2nc3ccccc3[nH]2)c1)C(=O)O` [drawing 510] reads 0; that for `N[C@@H](Cc1cccc(CSc2nnc(-c3ccccc3)[nH]2)c1)C(=O)O` [drawing 511], “+ (+ = Weak (15-30% of free peptide))”; that for `N[C@@H](Cc1cccc(CSc2nc3ccccc3[nH]2)n1)C(=O)O` [drawing 512], 0.
On the same count and under the same terms, under `N[C@@H](Cc1cccc(CSc2ncnc3[nH]ncc23)n1)C(=O)O` [drawing 513] stands 0; under `N[C@@H](Cc1cccc(CS(=O)(=O)c2nc3ccccc3[nH]2)n1)C(=O)O` [drawing 514], 0.
Take `COc1ccc(-n2nnnc2[S+]([O-])Cc2cccc(C[C@H](N)C(=O)O)c2)cc1` (stereo partly shown) [drawing 516]: the “MS Results (IAPP binding), Water” value is “+ (+ = Weak (15-30% of free peptide))”.
For `N[C@@H](Cc1cccc(CSc2nccc(O)n2)c1)C(=O)O` [drawing 517], the “MS Results (IAPP binding), Water” value was 0.
On the same count and under the same terms, under `N[C@@H](Cc1cccc(C[S+]([O-])c2nnnn2-c2ccccc2)c1)C(=O)O` (stereo partly shown) [drawing 518] stands “++ (++ = Moderate (30-50% of free peptide))”; under `N[C@@H](Cc1cccc(CSc2nccc(C(F)(F)F)n2)n1)C(=O)O` [drawing 519], “insoluble”.
The same measure, in the same setting: under `N[C@@H](Cc1cccc(CSc2nc3ccc(Cl)cc3s2)n1)C(=O)O` [drawing 520] stands “+++ (+++ = Strong (50 and higher % of free peptide))”; under `N[C@@H](Cc1cccc(CS(=O)(=O)c2nc3ccccc3[nH]2)c1)C(=O)O` [drawing 521], “+ (+ = Weak (15-30% of free peptide))”.
With `N[C@@H](Cc1cccc(C[S+]([O-])c2nnnn2-c2ccccc2)n1)C(=O)O` (stereo partly shown) [drawing 522], the “MS Results (IAPP binding), Water” value came to 0.
For the molecule `N[C@@H](Cc1cccc(CSc2nnnn2-c2ccc(O)cc2)c1)C(=O)O` [drawing 523], the “MS Results (IAPP binding), Water” value is listed as “++ (++ = Moderate (30-50% of free peptide))”.
In the case of `N[C@@H](Cc1cccc(CSc2nnc(-c3ccncc3)o2)c1)C(=O)O` [drawing 524], the “MS Results (IAPP binding), Water” value is on record as “++ (++ = Moderate (30-50% of free peptide))”.
Regarding `CN(C)CCn1nnnc1SCc1cccc(C[C@H](N)C(=O)O)c1` [drawing 525], the “MS Results (IAPP binding), Water” value was “+ (+ = Weak (15-30% of free peptide))”.
Regarding `N[C@@H](Cc1cccc(C[S+]([O-])c2nnc(-c3ccccc3)[nH]2)c1)C(=O)O` (stereo partly shown) [drawing 526], the “MS Results (IAPP binding), Water” value came out at 0.
With `N[C@@H](Cc1cccc(CS(=O)(=O)c2ncc[nH]2)c1)C(=O)O` [drawing 527], the “MS Results (IAPP binding), Water” value was found to be 0.
For the molecule `N[C@@H](Cc1cccc(CSc2nnc(-c3ccncc3)[nH]2)c1)C(=O)O` [drawing 528], the “MS Results (IAPP binding), Water” value is given as “+ (+ = Weak (15-30% of free peptide))”.

For the origin of these results see patent publication US20060167057A1, “Compounds for the treatment of CNS and amyloid associated diseases” (priority 2004, published 2006).
